Results on 6 compounds are retold here after patent US9062124B2, “GIP-based mixed agonists for treatment of metabolic disorders and obesity” (priority 2008, dated 2015).

Where a SMILES comes first, the peptide text is derived from it. [ ]: non-standard residue; d: D form. The star is where a group is joined. Myristoyl = CCCCCCCCCCCCCC(=O)*; Aib = CC(C)(N)C(=O)O

Common to all, as to type: cell-based
The target of one assay is T1, glucagon receptor (Homo sapiens, UniProt P47871).
T1 construct: expressed in transfected cells; host or cells: HEK293
T1 sequence (P47871 26-477): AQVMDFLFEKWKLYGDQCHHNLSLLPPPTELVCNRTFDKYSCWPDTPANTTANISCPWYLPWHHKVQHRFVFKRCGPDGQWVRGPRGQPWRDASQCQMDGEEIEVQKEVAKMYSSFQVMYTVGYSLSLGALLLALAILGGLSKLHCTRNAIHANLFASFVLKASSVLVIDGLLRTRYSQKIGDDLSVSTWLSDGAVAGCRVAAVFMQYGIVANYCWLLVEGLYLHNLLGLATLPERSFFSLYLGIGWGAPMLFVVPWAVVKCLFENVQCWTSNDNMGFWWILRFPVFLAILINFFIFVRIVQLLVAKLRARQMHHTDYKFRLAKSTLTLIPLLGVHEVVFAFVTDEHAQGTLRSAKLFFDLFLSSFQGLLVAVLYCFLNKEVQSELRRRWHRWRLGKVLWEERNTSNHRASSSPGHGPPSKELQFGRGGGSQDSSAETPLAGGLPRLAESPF
The assay is described as follows: cAMP synthesis functional assay (firefly luciferase reporter in HEK293 cells), glucagon receptor. On the technique in general: A reporter such as luciferase makes a cellular process visible.

A further assay concerns the target T2, GLP-1 receptor (Homo sapiens, UniProt P43220).
T2 construct: expressed in transfected cells; host or cells: HEK293
The assay is described as follows: cAMP synthesis functional assay (firefly luciferase reporter in HEK293 cells), GLP-1 receptor. The following applies: for EC50: GLP-1 Receptor EC50, cAMP luciferase reporter assay as in Example 16.

A further assay concerns the target T3, GIP receptor (Homo sapiens, UniProt P48546).
T3 construct: expressed in transfected cells; host or cells: HEK293
T3 sequence (P48546 22-466): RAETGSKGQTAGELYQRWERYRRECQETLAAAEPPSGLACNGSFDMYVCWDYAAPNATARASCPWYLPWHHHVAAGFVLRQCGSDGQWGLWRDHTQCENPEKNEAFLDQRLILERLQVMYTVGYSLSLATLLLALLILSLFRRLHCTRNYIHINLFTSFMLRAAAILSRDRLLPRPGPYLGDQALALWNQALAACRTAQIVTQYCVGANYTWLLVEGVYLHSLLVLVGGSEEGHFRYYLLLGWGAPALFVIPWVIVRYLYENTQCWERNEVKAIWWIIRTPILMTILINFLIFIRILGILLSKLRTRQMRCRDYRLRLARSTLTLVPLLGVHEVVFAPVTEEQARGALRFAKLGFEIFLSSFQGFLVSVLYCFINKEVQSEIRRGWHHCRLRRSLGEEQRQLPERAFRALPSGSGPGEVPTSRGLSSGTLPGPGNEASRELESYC
The assay is described as follows: cAMP synthesis functional assay (firefly luciferase reporter in HEK293 cells), GIP receptor. The following applies: for EC50: GIP Receptor EC50, cAMP luciferase reporter assay as in Example 16.

Setting [1] is: relative to the standard (Std.) EC50 of the same run.
[2] abbreviates: Table 4, relative to the native hormone.

T2 sequence (P43220 24-463, species assumed): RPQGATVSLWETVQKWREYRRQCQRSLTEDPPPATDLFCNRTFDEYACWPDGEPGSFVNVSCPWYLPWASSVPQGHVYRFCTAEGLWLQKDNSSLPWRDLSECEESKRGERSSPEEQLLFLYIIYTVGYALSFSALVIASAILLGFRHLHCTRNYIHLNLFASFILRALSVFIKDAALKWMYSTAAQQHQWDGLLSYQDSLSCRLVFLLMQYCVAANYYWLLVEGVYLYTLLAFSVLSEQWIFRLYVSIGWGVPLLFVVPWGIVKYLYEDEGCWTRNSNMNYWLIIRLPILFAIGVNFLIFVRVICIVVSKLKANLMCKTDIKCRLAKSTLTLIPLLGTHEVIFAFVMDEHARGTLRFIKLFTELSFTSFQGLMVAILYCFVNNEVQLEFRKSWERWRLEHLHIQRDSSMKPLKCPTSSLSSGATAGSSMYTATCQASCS

By EC50 is commonly meant the concentration that produces a half-maximal response. A higher EC50 goes with a need for much substance. `CC[C@H](C)[C@H](NC(=O)[C@H](CO)NC(=O)[C@H](Cc1ccc(O)cc1)NC(=O)[C@H](CC(=O)O)NC(=O)[C@H](CO)NC(=O)[C@@H](NC(=O)[C@H](Cc1ccccc1)NC(=O)[C@@H](NC(=O)CNC(=O)[C@H](CCC(=O)O)NC(=O)C(C)(C)NC(=O)[C@@H](N)Cc1ccc(O)cc1)[C@@H](C)O)[C@@H](C)O)C(=O)N[C@@H](Cc1ccc(O)cc1)C(=O)N[C@@H](CC(C)C)C(=O)N[C@@H](CC(=O)O)C(=O)N[C@@H](CCCCN)C(=O)N[C@@H](CCC(N)=O)C(=O)N[C@@H](C)C(=O)N[C@@H](C)C(=O)NC(C)(C)C(=O)N[C@@H](CCC(=O)O)C(=O)N[C@@H](Cc1ccccc1)C(=O)N[C@H](C(=O)N[C@@H](CS)C(=O)N[C@@H](Cc1c[nH]c2ccccc12)C(=O)N[C@@H](CC(C)C)C(=O)N[C@@H](CC(C)C)C(=O)N[C@@H](C)C(=O)NCC(=O)NCC(=O)N1CCC[C@H]1C(=O)N[C@@H](CO)C(=O)N[C@@H](CO)C(=O)NCC(=O)N[C@@H](C)C(=O)N1CCC[C@H]1C(=O)N1CCC[C@H]1C(=O)N1CCC[C@H]1C(=O)N[C@@H](CO)C(=O)N[C@H](CCCCN)C(N)=O)C(C)C` [mt-334]: the concentration giving a half-maximal response (EC50) is 7070 pM at glucagon receptor (Glucagon Receptor EC50, cAMP luciferase reporter assay as in Example 16); 3.4 pM at GLP-1 receptor; 4.1 pM at GIP receptor. The “Glucagon Receptor relative activity” value at glucagon receptor (setting [1]) worked out at 0.27%. Moreover, at GLP-1 receptor (setting [1]), the “GLP-1 Receptor relative activity” value is on record as 70.59%. At GIP receptor (setting [1]), the “GIP Receptor relative activity” value is 187.80%.

Regarding `CCCCCCCCCCCCCC(=O)NCCCC[C@H](NC(=O)[C@H](CC(=O)O)NC(=O)[C@H](CO)NC(=O)[C@@H](NC(=O)[C@H](Cc1ccccc1)NC(=O)[C@@H](NC(=O)CNC(=O)[C@H](CCC(=O)O)NC(=O)C(C)(C)NC(=O)[C@@H](N)Cc1ccc(O)cc1)[C@@H](C)O)[C@@H](C)O)C(=O)N[C@@H](CO)C(=O)N[C@H](C(=O)N[C@@H](Cc1ccc(O)cc1)C(=O)N[C@@H](CC(C)C)C(=O)N[C@@H](CC(=O)O)C(=O)N[C@@H](CCCCN)C(=O)N[C@@H](CCC(N)=O)C(=O)N[C@@H](C)C(=O)N[C@@H](C)C(=O)NC(C)(C)C(=O)N[C@@H](CCC(=O)O)C(=O)N[C@@H](Cc1ccccc1)C(=O)N[C@H](C(=O)N[C@@H](CS)C(=O)N[C@@H](Cc1c[nH]c2ccccc12)C(=O)N[C@@H](CC(C)C)C(=O)N[C@@H](CC(C)C)C(=O)N[C@@H](C)C(=O)NCC(=O)NCC(=O)N1CCC[C@H]1C(=O)N[C@@H](CO)C(=O)N[C@@H](CO)C(=O)NCC(=O)N[C@@H](C)C(=O)N1CCC[C@H]1C(=O)N1CCC[C@H]1C(=O)N1CCC[C@H]1C(=O)N[C@@H](CO)C(N)=O)C(C)C)[C@@H](C)CC` [mt-337] (H-Y[Aib]EGTFTSDK(Myristoyl)SIYLDKQAA[Aib]EFVCWLLAGGPSSGAPPPS-NH2; N-terminus assumed), at glucagon receptor (setting [1]), the “Glucagon Receptor relative activity” value was 0.02%. Besides, the EC50 is 8.2 pM on GLP-1 receptor and 8 pM at GIP receptor. For the same compound, at GLP-1 receptor (setting [1]), the “GLP-1 Receptor relative activity” value came out at 74.39%. The “GIP Receptor relative activity” value at GIP receptor (setting [1]) is 115.00%.

Turning to `CC[C@H](C)[C@H](NC(=O)[C@H](CO)NC(=O)[C@H](CCCCN)NC(=O)[C@H](CC(=O)O)NC(=O)[C@H](CO)NC(=O)[C@@H](NC(=O)[C@H](Cc1ccccc1)NC(=O)[C@@H](NC(=O)CNC(=O)[C@H](CCC(=O)O)NC(=O)C(C)(C)NC(=O)[C@@H](N)Cc1ccc(O)cc1)[C@@H](C)O)[C@@H](C)O)C(=O)N[C@@H](Cc1ccc(O)cc1)C(=O)N[C@@H](CC(C)C)C(=O)N[C@@H](CC(=O)O)C(=O)N[C@@H](CCCCN)C(=O)N[C@@H](CCC(N)=O)C(=O)N[C@@H](C)C(=O)N[C@@H](C)C(=O)NC(C)(C)C(=O)N[C@@H](CCC(=O)O)C(=O)N[C@@H](Cc1ccccc1)C(=O)N[C@H](C(=O)N[C@@H](CS)C(=O)N[C@@H](Cc1c[nH]c2ccccc12)C(=O)N[C@@H](CC(C)C)C(=O)N[C@@H](CC(C)C)C(=O)N[C@@H](C)C(=O)NCC(=O)NCC(=O)N1CCC[C@H]1C(=O)N[C@@H](CO)C(=O)N[C@@H](CO)C(=O)NCC(=O)N[C@@H](C)C(=O)N1CCC[C@H]1C(=O)N1CCC[C@H]1C(=O)N1CCC[C@H]1C(=O)N[C@@H](CO)C(N)=O)C(C)C` [mt-338] (H-Y[Aib]EGTFTSDKSIYLDKQAA[Aib]EFVCWLLAGGPSSGAPPPS-NH2; N-terminus assumed), the “Glucagon Receptor relative activity” value on glucagon receptor (setting [1]) was found to be 0.01%. Moreover, the figures for the EC50 on GLP-1 receptor and at GIP receptor were 226 pM and 23.4 pM, respectively. The “GLP-1 Receptor relative activity” value on GLP-1 receptor (setting [1]) amounted to 2.70%. In addition, the “GIP Receptor relative activity” value at GIP receptor (setting [1]) was determined as 39.32%.

Regarding `CCCCCCCCCCCCCC(=O)NCCCC[C@H](NC(=O)[C@H](CO)NC(=O)[C@@H]1CCCN1C(=O)[C@@H]1CCCN1C(=O)[C@@H]1CCCN1C(=O)[C@H](C)NC(=O)CNC(=O)[C@H](CO)NC(=O)[C@H](CO)NC(=O)[C@@H]1CCCN1C(=O)CNC(=O)CNC(=O)[C@H](C)NC(=O)[C@H](CC(C)C)NC(=O)[C@H](CC(C)C)NC(=O)[C@H](Cc1c[nH]c2ccccc12)NC(=O)[C@H](CC(N)=O)NC(=O)[C@@H](NC(=O)[C@H](Cc1ccccc1)NC(=O)[C@H](CCC(=O)O)NC(=O)C(C)(C)NC(=O)[C@H](C)NC(=O)[C@H](C)NC(=O)[C@H](CCC(N)=O)NC(=O)[C@H](CCCCN)NC(=O)[C@H](CC(=O)O)NC(=O)[C@H](CC(C)C)NC(=O)[C@H](Cc1ccc(O)cc1)NC(=O)[C@@H](NC(=O)[C@H](CO)NC(=O)[C@H](Cc1ccc(O)cc1)NC(=O)[C@H](CC(=O)O)NC(=O)[C@H](CO)NC(=O)[C@@H](NC(=O)[C@H](Cc1ccccc1)NC(=O)[C@@H](NC(=O)CNC(=O)[C@H](CCC(=O)O)NC(=O)C(C)(C)NC(=O)[C@@H](N)Cc1ccc(O)cc1)[C@@H](C)O)[C@@H](C)O)[C@@H](C)CC)C(C)C)C(=O)N[C@@H](CS)C(N)=O` [mt-339], at glucagon receptor (setting [1]), the “Glucagon Receptor relative activity” value amounted to 0.28%. In addition, on GLP-1 receptor (setting [1]), the “GLP-1 Receptor relative activity” value was 66.30%. In addition, the “GIP Receptor relative activity” value at GIP receptor (setting [1]) was found to be 230.00%.

As for `CC[C@H](C)[C@H](NC(=O)[C@H](CO)NC(=O)[C@H](Cc1ccc(O)cc1)NC(=O)[C@H](CC(=O)O)NC(=O)[C@H](CO)NC(=O)[C@@H](NC(=O)[C@H](Cc1ccccc1)NC(=O)[C@@H](NC(=O)CNC(=O)[C@H](CCC(=O)O)NC(=O)C(C)(C)NC(=O)[C@@H](N)Cc1ccc(O)cc1)[C@@H](C)O)[C@@H](C)O)C(=O)N[C@@H](Cc1ccc(O)cc1)C(=O)N[C@@H](CC(C)C)C(=O)N[C@@H](CC(=O)O)C(=O)N[C@@H](CCCCN)C(=O)N[C@@H](CCC(N)=O)C(=O)N[C@@H](C)C(=O)N[C@@H](C)C(=O)NC(C)(C)C(=O)N[C@@H](CCC(=O)O)C(=O)N[C@@H](Cc1ccccc1)C(=O)N[C@H](C(=O)N[C@@H](CC(N)=O)C(=O)N[C@@H](Cc1c[nH]c2ccccc12)C(=O)N[C@@H](CC(C)C)C(=O)N[C@@H](CC(C)C)C(=O)N[C@@H](C)C(=O)NCC(=O)NCC(=O)N1CCC[C@H]1C(=O)N[C@@H](CO)C(=O)N[C@@H](CO)C(=O)NCC(=O)N[C@@H](C)C(=O)N1CCC[C@H]1C(=O)N1CCC[C@H]1C(=O)N1CCC[C@H]1C(=O)N[C@@H](CO)C(=O)N[C@@H](CCCCN)C(=O)N[C@@H](CS)C(N)=O)C(C)C` [mt-340], the “Glucagon Receptor relative activity” value on glucagon receptor (setting [1]) amounted to 0.24%. Also, at GLP-1 receptor (setting [1]), the “GLP-1 Receptor relative activity” value stood at 100.00%. This compound also returned a half-maximal effective concentration (EC50) at GIP receptor of 2.8 pM. Moreover, at GIP receptor (setting [1]), the “GIP Receptor relative activity” value came to 328.57%.

As for `CC[C@H](C)[C@H](NC(=O)[C@H](CO)NC(=O)[C@H](Cc1ccc(O)cc1)NC(=O)[C@H](CC(=O)O)NC(=O)[C@H](CO)NC(=O)[C@@H](NC(=O)[C@H](Cc1ccccc1)NC(=O)[C@@H](NC(=O)CNC(=O)[C@H](CCC(N)=O)NC(=O)C(C)(C)NC(=O)[C@@H](N)Cc1ccc(O)cc1)[C@@H](C)O)[C@@H](C)O)C(=O)N[C@@H](Cc1ccc(O)cc1)C(=O)N[C@@H](CC(C)C)C(=O)N[C@@H](CC(=O)O)C(=O)N[C@@H](CCCCN)C(=O)N[C@@H](CCC(N)=O)C(=O)N[C@@H](C)C(=O)N[C@@H](C)C(=O)NC(C)(C)C(=O)N[C@@H](CCC(=O)O)C(=O)N[C@@H](Cc1ccccc1)C(=O)N[C@H](C(=O)N[C@@H](CC(N)=O)C(=O)N[C@@H](Cc1c[nH]c2ccccc12)C(=O)N[C@@H](CC(C)C)C(=O)N[C@@H](CCSC)C(=O)N[C@@H](CC(N)=O)C(=O)NCC(=O)NCC(=O)N1CCC[C@H]1C(=O)N[C@@H](CO)C(=O)N[C@@H](CO)C(=O)NCC(=O)N[C@@H](C)C(=O)N1CCC[C@H]1C(=O)N1CCC[C@H]1C(=O)N1CCC[C@H]1C(=O)N[C@@H](CO)C(=O)N[C@@H](CCCCN)C(N)=O)C(C)C` [mt-356] (H-Y[Aib]QGTFTSDYSIYLDKQAA[Aib]EFVNWLMNGGPSSGAPPPSK-NH2; N-terminus assumed), at glucagon receptor (setting [2]), the “Glucagon Receptor relative activity” value is given as 126.06%. For the same compound, the “GLP-1 Receptor relative activity” value on GLP-1 receptor (setting [2]) is reported as 224.02%. Besides, the “GIP Receptor relative activity” value at GIP receptor (setting [2]) is 25.66%.
